In one assay the target is human CB2 receptors (Homo sapiens (Human), UniProt P34972). Kind of assay: cAMP assay (functional), CHO cells expressing human CB2 receptors. The assay is classed as cell-based. The conditions noted are these: functional cAMP assay, CHO cells expressing human CB2; read-out: human CB2 EC50. On the procedure:
(§1) CHO cells expressing human CB1 or CB2 receptors are seeded 17-24 hours prior to the experiment 50.000 cells per well in a black 96 well plate with flat clear bottom (Corning Costar #3904) in DMEM (Invitrogen No. 31331), 1×HT supplement, with 10% fetal calf serum and incubated at 5% CO2 and 37° C. in a humidified incubator. The growth medium was exchanged with Krebs Ringer Bicarbonate buffer with 1 mM IBMX and incubated at 30° C. for 30 min. Compounds were added to a final assay volume of 100 μl and incubated for 30 min at 30° C. Using the cAMP-Nano-TRF detection kit the assay (Roche Diagnostics) was stopped by the addition of 50 μl lysis reagent (Tris, NaCl, 1.5% Triton X100, 2.5% NP40, 10% NaN3) and 50 μl detection solutions (20 μM mAb Alexa700-cAMP 1:1, and 48 μM Ruthenium-2-AHA-cAMP) and shaken for 2 h at room temperature. The time-resolved energy transfer is measured by a TRF reader (Evotec Technologies GmbH), equipped with a ND:YAG laser as excitation source. The plate is measured twice with the excitation at 355 nm and at the emission with a delay of 100 ns and a gate of 100 ns, total exposure time 10 s at 730 (bandwidth 30 nm) or 645 nm (bandwidth 75 nm), respectively. The FRET signal is calculated as follows: FRET=T730-Alexa730-P (T645-B645) with P=Ru730-B730/Ru645-B645, where T730 is the test well measured at […], T645 is the test well measured at 645 nm, B730 and B645 are the buffer controls at 730 nm and 645 nm, respectively. cAMP content is determined from the function of a standard curve spanning from 10 μM to 0.13 nM cAMP.
(§2) EC50 values were determined using Activity Base analysis (ID Business Solution, Limited). The EC50 values for a wide range of cannabinoid agonists generated from this assay were in agreement with the values published in the scientific literature.
Background: cAMP levels reflect the balance of adenylyl cyclase and phosphodiesterase activity.

Another assay deals with human CB1 receptors (Homo sapiens (Human), UniProt P21554). In words: cAMP assay (functional), CHO cells expressing human CB1 receptors. In kind it is cell-based. The conditions noted are these: functional cAMP assay, CHO cells expressing human CB1; read-out: human CB1 EC50. Here is the method:
as §1, §2

Sequence of human CB1 receptors (P21554 whole entry): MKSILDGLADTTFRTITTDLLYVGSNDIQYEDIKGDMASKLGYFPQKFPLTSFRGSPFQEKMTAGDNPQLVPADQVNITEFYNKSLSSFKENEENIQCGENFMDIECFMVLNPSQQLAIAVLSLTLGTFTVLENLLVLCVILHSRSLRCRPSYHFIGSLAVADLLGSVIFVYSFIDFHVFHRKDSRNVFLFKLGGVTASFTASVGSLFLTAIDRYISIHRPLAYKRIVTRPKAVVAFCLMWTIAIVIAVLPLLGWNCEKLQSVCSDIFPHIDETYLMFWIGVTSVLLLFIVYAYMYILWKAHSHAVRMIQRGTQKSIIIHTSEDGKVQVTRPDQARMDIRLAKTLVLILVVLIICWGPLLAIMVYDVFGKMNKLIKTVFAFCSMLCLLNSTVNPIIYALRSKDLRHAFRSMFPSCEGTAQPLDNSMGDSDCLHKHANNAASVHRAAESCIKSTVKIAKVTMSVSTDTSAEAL
Sequence of human CB2 receptors (P34972 whole entry): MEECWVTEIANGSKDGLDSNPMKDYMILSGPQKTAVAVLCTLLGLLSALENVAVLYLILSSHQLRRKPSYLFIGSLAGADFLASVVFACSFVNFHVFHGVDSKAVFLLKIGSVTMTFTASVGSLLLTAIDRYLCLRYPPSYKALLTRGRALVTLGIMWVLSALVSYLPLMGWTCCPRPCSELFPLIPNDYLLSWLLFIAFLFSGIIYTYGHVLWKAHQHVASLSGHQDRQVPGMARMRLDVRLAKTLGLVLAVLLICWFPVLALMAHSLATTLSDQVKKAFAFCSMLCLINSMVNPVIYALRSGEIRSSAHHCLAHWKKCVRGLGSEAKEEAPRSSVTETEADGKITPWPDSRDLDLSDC

Consider `COC(=O)[C@@H]1CCCN1C(=O)c1cnc(C2CC2)c(OCC2CC2)n1` [Example 16, (S)-1-(5-Cyclopropyl-6-cyclopropylmethoxy-pyrazine-2-carbonyl)-pyrrolidine-2-carboxylic acid methyl ester], for which the results for the EC50 on human CB2 receptors and at human CB1 receptors were 0.191 µM and greater than 10 µM, respectively.
As for `CC(=O)OC1(C)CCN(C(=O)c2cnc(N3CC(F)(F)C3)c(OCC3CC3)n2)C1` (stereo not drawn) [Example 29, Acetic acid 1-[6-cyclopropylmethoxy-5-(3,3-difluoro-azetidin-1-yl)-pyrazine-2-carbonyl]-3-methyl-pyrrolidin-3-yl ester], the EC50 at human CB2 receptors is 0.0088 µM; at human CB1 receptors, greater than 10 µM.
Turning to `CC1(C)CCCN1C(=O)c1cnc(N2CC(F)(F)C2)c(OCC2CC2)n1` [Example 21, [6-Cyclopropylmethoxy-5-(3,3-difluoro-azetidin-1-yl)-pyrazin-2-yl]-(2,2-dimethyl-pyrrolidin-1-yl)-methanone], the values for the EC50 on human CB2 receptors and at human CB1 receptors were 0.0043 µM and greater than 10 µM, respectively.
As for `COCCN(C(=O)c1cnc(N2CC(F)(F)C2)c(OCC2CC2)n1)C(C)(C)C` [Example 3, 6-Cyclopropylmethoxy-5-(3,3-difluoro-azetidin-1-yl)-pyrazine-2-carboxylic acid tert-butyl-(2-methoxy-ethyl)-amide], the EC50 at human CB2 receptors was 0.004 µM; at human CB1 receptors it was greater than 10 µM.
As to `NC(=O)[C@@H]1CC(F)(F)CN1C(=O)c1cnc(N2CC(F)(F)C2)c(OCC2CC2)n1` [Example 19, (S)-1-[6-Cyclopropylmethoxy-5-(3,3-difluoro-azetidin-1-yl)-pyrazine-2-carbonyl]-4,4-difluoro-pyrrolidine-2-carboxylic acid amide], the results for the concentration giving a half-maximal response (EC50) on human CB2 receptors and on human CB1 receptors were 0.0057 µM and greater than 10 µM, respectively.
For `O=C(c1cnc(C2CC2)c(OCC2CC2)n1)N1CC(F)(F)C(F)(F)C1` [Example 26, (5-Cyclopropyl-6-cyclopropylmethoxy-pyrazin-2-yl)-(3,3,4,4-tetrafluoro-pyrrolidin-1-yl)-methanone] the same measures were 0.124 µM and greater than 10 µM.
The corresponding values for `C[C@H]1CCCN1C(=O)c1cnc(N2CC(F)(F)C2)c(OCC2CC2)n1` [Example 5, [6-Cyclopropylmethoxy-5-(3,3-difluoro-azetidin-1-yl)-pyrazin-2-yl]-((S)-2-methyl-pyrrolidin-1-yl)-methanone] are 0.0817 µM and greater than 10 µM.
For `NC(=O)C1CCCCN1C(=O)c1cnc(N2CC(F)(F)C2)c(OCC2CC2)n1` (stereo not drawn) [Example 33, 1-[6-Cyclopropylmethoxy-5-(3,3-difluoro-azetidin-1-yl)-pyrazine-2-carbonyl]-piperidine-2-carboxylic acid amide], the EC50 is 0.33 µM at human CB2 receptors and greater than 10 µM at human CB1 receptors.
The corresponding values for `C[C@@H]1CCCN1C(=O)c1cnc(C2CC2)c(OCC2CC2)n1` [Example 1, (5-Cyclopropyl-6-cyclopropylmethoxy-pyrazin-2-yl)-((R)-2-methyl-pyrrolidin-1-yl)-methanone] are 0.0573 µM and greater than 10 µM.
On to `O=C(c1cnc(N2CC(F)(F)C2)c(OCC2CC2)n1)N1CCC(F)(F)C1` [Example 8, [6-Cyclopropylmethoxy-5-(3,3-difluoro-azetidin-1-yl)-pyrazin-2-yl]-(3,3-difluoro-pyrrolidin-1-yl)-methanone], for which the figures for the concentration giving a half-maximal response (EC50) at human CB2 receptors and at human CB1 receptors were 0.0298 µM and greater than 10 µM, respectively.
Regarding `NC(=O)C1CCCCN1C(=O)c1cnc(N2CC(F)(F)C2)c(OCC2CC2)n1` (single isomer, unassigned; (-)) [Example 36, (−)-1-[6-Cyclopropylmethoxy-5-(3,3-difluoro-azetidin-1-yl)-pyrazine-2-carbonyl]-piperidine-2-carboxylic acid amide], the EC50 at human CB2 receptors was 0.217 µM; on human CB1 receptors it was greater than 10 µM.
For the compound `CN(C)C(=S)[C@H]1CCCN1C(=O)c1cnc(N2CC(F)(F)C2)c(OCC2CC2)n1` [Example 24, (R)-1-[6-Cyclopropylmethoxy-5-(3,3-difluoro-azetidin-1-yl)-pyrazine-2-carbonyl]-pyrrolidine-2-carbothioic acid dimethylamide], the half-maximal effective concentration (EC50) at human CB2 receptors was 0.333 µM; on human CB1 receptors, greater than 10 µM.
For `O=C(c1cnc(N2CC(F)(F)C2)c(OCC2CC2)n1)N1CCN(CCO)CC1` [Example 20, [6-Cyclopropylmethoxy-5-(3,3-difluoro-azetidin-1-yl)-pyrazin-2-yl]-[4-(2-hydroxy-ethyl)-piperazin-1-yl]-methanone] the same measures were 0.316 µM and greater than 10 µM.
`O=C(c1cnc(N2CC(F)(F)C2)c(OCC2CC2)n1)N1CCOCC12CC2` [Example 10, [6-Cyclopropylmethoxy-5-(3,3-difluoro-azetidin-1-yl)-pyrazin-2-yl]-(7-oxa-4-aza-spiro[2.5]oct-4-yl)-methanone]: the EC50 on human CB2 receptors is 0.015 µM; at human CB1 receptors it was greater than 10 µM.
The corresponding values for `CC1(O)C[C@@H](C(N)=O)N(C(=O)c2cnc(N3CC(F)(F)C3)c(OCC3CC3)n2)C1` (stereo partly drawn) [Example 41, (2S)-1-[6-(Cyclopropylmethoxy)-5-(3,3-difluoroazetidin-1-yl)pyrazine-2-carbonyl]-4-hydroxy-4-methylpyrrolidine-2-carboxamide] are 0.09 µM and greater than 10 µM.
For `CN(C(=O)c1cnc(N2CC(F)(F)C2)c(OCC2CC2)n1)C(C)(C)C` [Example 7, 6-Cyclopropylmethoxy-5-(3,3-difluoro-azetidin-1-yl)-pyrazine-2-carboxylic acid tert-butyl-methyl-amide] the same measures were 0.0032 µM and greater than 10 µM.
The corresponding values for `CC1(C)CC(C(N)=O)N(C(=O)c2cnc(C3CC3)c(OCC3CC3)n2)C1` (single isomer, unassigned; (-)) [Example 39, (−)-1-(5-Cyclopropyl-6-cyclopropylmethoxy-pyrazine-2-carbonyl)-4,4-dimethyl-pyrrolidine-2-carboxylic acid amide] are 0.0103 µM and greater than 10 µM.
Take `C[C@@H]1CCCN1C(=O)c1cnc(N2CC(F)(F)C2)c(OCC2CC2)n1` [Example 2, [6-Cyclopropylmethoxy-5-(3,3-difluoro-azetidin-1-yl)-pyrazin-2-yl]-((R)-2-methyl-pyrrolidin-1-yl)-methanone]: the EC50 is 0.0049 µM at human CB2 receptors and greater than 10 µM at human CB1 receptors.

A word on the EC50: it is the concentration needed to bring the measured effect to its halfway point.

The record behind these values is patent US9512141B2, “Pyrazine derivatives as CB2 receptor agonists” (Hoffmann-La Roche Inc., priority 2012, dated 2016).
